Data set [1] deals with GluN2B subunit-containing NMDARs. The note with it: cited from earlier work.
Data set [2] is described as follows: Plasma metabolite analysis (parent fraction over time). The data set is classed as in vivo, rhesus monkeys. To be noted: for Parent fraction of total plasma activity: baseline scans; for Effect of pretreatment on parent fraction of (R)-[^18F]OF-Me-NB1 in plasma: blocking scans. The protocol:
Measurements of plasma activity and parent fraction over time were performed as previously described. Arterial or venous blood samples were collected at preselected time points and assayed for radioactivity in whole blood and plasma with cross-calibrated gamma counters (Wizard 1480/2480, Perkin Elmer, Waltham, MA, USA). The volume of the whole blood or plasma (50–200 µL) was determined by the weight of the sample. Parent fraction was calculated as the ratio of the total radioactivity in fractions containing the parent compound to the total amount of radioactivity collected and fitted with an inverted gamma function and corrected for filtration efficiency. The arterial plasma input function (AIF) was then calculated as the product of the total counts in the plasma and the interpolated parent fraction at each time point.

For data set [3], the target named is T1, GluN2B subunits of the NMDA receptor (Macaca mulatta, UniProt F6T8S6).
T1 construct: consistent with the pattern of GluN2B expression in the monkey brain; from tissue; host or cells: brain of living rhesus monkeys (in vivo PET)
Briefly: PET blocking studies and occupancy (Lassen) plot with (R)-[^18F]OF-Me-NB1. The note with it: for VT, cerebellum / VT, cingulate cortex / VT, frontal cortex / VT, hippocampus / VT, semiovale / VT, thalamus: MA1; for Non-displaceable volume of distribution (VND): from occupancy plot with Co101,244 0.25 mg/kg; for Receptor occupancy (occupancy plot): tracer (R)-[^18F]OF-Me-NB1. The data set is classed as in vivo, rhesus monkeys (Macaca mulatta). The protocol:
(§1) A total of seven PET scans in two monkeys were acquired. Each monkey underwent one baseline scan with (R)-[^18F]OF-Me-NB1, and two blocking scans at 10 min after the injection of the GluN2B antagonist Co-101,244 (0.25 mg/kg) or the sigma-1 antagonist FTC-146 (0.027 and 0.125 mg/kg). Co-101,244 and FTC-146 were previously used by Cai et al. to determine the in vivo binding specificity and selectivity of a radiotracer from the same scaffold, [^11C]NR2B-SMe, in rodents. In addition, a baseline scan with (S)-[^18F]OF-Me-NB1 was also performed in one monkey. All procedures were approved by the Yale University Institutional Animal Care and Use Committee.
(§2) Kinetic parameters were determined by fitting the regional TACs and metabolite-corrected arterial input functions to the one-tissue compartment (1TC) and two-tissue compartment (2TC) models, as well as the multilinear analysis 1 (MA1) method with starting time of 30 min [28]. The regional volume of distribution (VT, mL/cm^3) was derived in each case.
For the blocking studies, occupancy plots were constructed using regional VT values at baseline and differences in VT between baseline and blocking scans. Percent target occupancy across the brain and non-displaceable volume of distribution (VND) was then determined from the resulting linear relationship, where the slope is the uniform receptor occupancy by the drug in the brain [29].

In data set [4] the target is T1, GluN2B subunits of the NMDA receptor. The experiment in a line: PET imaging in rhesus monkeys, baseline scans with kinetic modeling. The data set is classed as in vivo, rhesus monkeys (Macaca mulatta). To be noted: for BPND, cerebellum / BPND, cingulate cortex / BPND, frontal cortex / BPND, hippocampus / BPND, semiovale / BPND, thalamus: from baseline VT and VND of Co101,244 occupancy plot; for Peak uptake SUV across brain regions / Time to peak brain uptake after tracer injection: baseline scan, monkey brain; for VT, cerebellum / VT, cingulate cortex / VT, frontal cortex / VT, hippocampus / VT, semiovale / VT, thalamus: baseline, MA1. The protocol:
as §1
(§3) Animals were sedated with a combination of alfaxalone (2 mg/kg), midazolam (0.3 mg/kg), and dexmedetomidine (0.01 mg/kg) and maintained in an anesthetized state with 1.5–2.5% isoflurane in oxygen. Heart rate, blood pressure, respiration rate, oxygen saturation, and respiration rate were monitored continuously. An arterial line was placed in the radial artery for blood sampling.
Dynamic PET data were acquired on the Focus 220 scanner (Siemens Medical Solutions, Knoxville, TN, USA). Before radiotracer injection, a 9 min transmission scan was obtained for attenuation correction. The radiotracer (10 mL) was administered intravenously as a slow bolus over 3 min. Emission data were collected in list mode for 90 or 120 min and binned into frames of increasing durations (6 × 30 s, 3 × 1 min, 2 × 2 min, and […]).
High-resolution magnetic resonance images were acquired with a Siemens 3 T Trio scanner for the region of interest (ROI) definition. PET emission data were attenuation-corrected using the transmission scan, then reconstructed using a Fourier rebinning and filtered back-projection algorithm. PET images summed from the first 10 min of each scan were registered to the anatomical MR image. Inverted transformations were applied to register an atlas ROI mask to the PET image, and time-activity curves (TACs) were extracted from each ROI: frontal, occipital, temporal, cingulate and insular cortex, caudate, putamen, globus pallidus, nucleus accumbens, amygdala, hippocampus, thalamus, pons, substantia nigra, cerebellum, and centrum semiovale.
as §2

Data set [5] is described as follows: Plasma free fraction (fP) by ultrafiltration. The data set is classed as in vitro ADME, rhesus monkeys. To be noted: monkey plasma. The method, then: The ultrafiltration method was used for measuring the unbound portion (free fraction) of [^18F]OF-Me-NB1 in plasma as previously described. The fP was determined as the ratio of the radioactivity concentration in the filtrate to the total activity in plasma. Measurements of fP were performed in triplicate for each scan.

Data set [6] in a line: Measurement of lipophilicity (log D7.4), 1-octanol/PBS. The data set is classed as physicochemical. The note with it: 1-octanol/PBS pH 7.4; n = 4. The protocol:
Lipophilicity (log D7.4) was measured using the method previously reported. Log D7.4 was calculated as the ratio of decay-corrected radioactivity concentrations in 1-octanol and phosphate-buffered saline (PBS, pH = 7.4, Dulbecco). Six consecutive equilibrations were performed until a constant value of log D7.4 was obtained.

A further data set has as its target sigma-1 receptor. To be noted: cited from earlier work.
Data set [7] can be described thus: Vital signs monitoring during PET scans. Format: in vivo, rhesus monkeys. The note with it: after the injections of blocking drug and tracer for the blocking scan. The protocol:
as §3

Where [8] appears, read: blocking with Co 101,244 (0.25 mg/kg), M1.
Where [9] appears, read: blocking with Co 101,244 (0.25 mg/kg), M2.
Where [10] appears, read: blocking with FTC-146 (0.027 mg/kg), M1.
[11] abbreviates: blocking with FTC-146 (0.125 mg/kg), M2.
Where [12] appears, read: M1 (male), listed as (R)–[^18F]OF–Me–NB1.

Molecules are shown by their SMILES. Values joined by “and” are separate entries in the source; they are usually repeats but may differ in a detail not shown here. Equal values may be shown once. Read-outs that look alike come from different tables or passages of the source.

T1 sequence (F6T8S6 29-1484): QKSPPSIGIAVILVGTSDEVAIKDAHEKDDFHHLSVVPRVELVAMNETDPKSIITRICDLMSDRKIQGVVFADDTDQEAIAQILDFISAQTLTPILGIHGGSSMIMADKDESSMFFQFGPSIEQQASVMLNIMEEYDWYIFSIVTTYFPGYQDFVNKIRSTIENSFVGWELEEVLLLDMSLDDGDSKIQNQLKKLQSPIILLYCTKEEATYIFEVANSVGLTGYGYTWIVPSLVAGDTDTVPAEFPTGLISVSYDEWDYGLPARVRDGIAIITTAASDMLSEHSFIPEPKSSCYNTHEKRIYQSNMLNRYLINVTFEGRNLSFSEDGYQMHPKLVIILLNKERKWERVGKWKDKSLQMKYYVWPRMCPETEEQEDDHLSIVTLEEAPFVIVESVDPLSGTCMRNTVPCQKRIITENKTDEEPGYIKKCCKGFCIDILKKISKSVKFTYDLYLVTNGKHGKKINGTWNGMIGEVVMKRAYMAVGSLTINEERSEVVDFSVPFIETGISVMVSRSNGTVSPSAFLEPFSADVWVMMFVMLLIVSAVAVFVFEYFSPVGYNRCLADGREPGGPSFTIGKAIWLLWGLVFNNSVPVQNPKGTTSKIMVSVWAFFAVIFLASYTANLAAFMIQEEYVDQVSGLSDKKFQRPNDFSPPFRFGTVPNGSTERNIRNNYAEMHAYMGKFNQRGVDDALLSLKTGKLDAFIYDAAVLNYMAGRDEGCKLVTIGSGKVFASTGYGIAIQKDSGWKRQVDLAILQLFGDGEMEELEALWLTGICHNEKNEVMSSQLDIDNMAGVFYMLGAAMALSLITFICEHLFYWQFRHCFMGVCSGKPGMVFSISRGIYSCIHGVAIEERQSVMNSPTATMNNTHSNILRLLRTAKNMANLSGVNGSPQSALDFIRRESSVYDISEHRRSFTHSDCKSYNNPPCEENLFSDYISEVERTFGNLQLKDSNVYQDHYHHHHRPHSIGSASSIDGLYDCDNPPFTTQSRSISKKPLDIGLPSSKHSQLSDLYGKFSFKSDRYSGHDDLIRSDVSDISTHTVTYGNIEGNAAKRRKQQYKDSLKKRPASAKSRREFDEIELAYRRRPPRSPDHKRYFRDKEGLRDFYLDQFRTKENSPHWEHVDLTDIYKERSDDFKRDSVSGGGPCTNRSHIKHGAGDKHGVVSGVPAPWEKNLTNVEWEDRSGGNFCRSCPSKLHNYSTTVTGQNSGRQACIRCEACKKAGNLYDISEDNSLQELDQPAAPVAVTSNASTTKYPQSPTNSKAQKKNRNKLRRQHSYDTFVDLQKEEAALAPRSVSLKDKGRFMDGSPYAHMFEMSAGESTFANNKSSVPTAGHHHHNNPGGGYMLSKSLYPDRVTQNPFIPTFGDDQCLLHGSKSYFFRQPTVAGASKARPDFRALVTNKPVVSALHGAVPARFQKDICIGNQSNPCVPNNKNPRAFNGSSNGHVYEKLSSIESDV

For orientation: Ki means the equilibrium dissociation constant of an inhibitor or competing ligand from its target. A word on the fraction unbound: it is the share of the substance not bound to proteins or other matrix. The term logD denotes the decadic logarithm of the distribution of all forms, ionised or not, between an organic phase and buffer at a given pH. Consider `COc1ccc2c(c1)CCN(CCCCc1ccccc1[18F])C[C@@H]2O` [(R)-[^18F]OF-Me-NB1], for which the Ki in data set [1] (read-out: Ki, binding affinity to GluN2B) is 4 nM. Also, the “Parent fraction of total plasma activity” value in data set [2] (30 min after tracer injection) is reported as ~ 30%. In addition, the “Parent fraction of total plasma activity” value in data set [2] (90 min after tracer injection) is 20%. Also, in data set [3] (setting [8]), the “VT, cerebellum” value was found to be 6.9 mL/cm^3; the “VT, cingulate cortex” value worked out at 8.1 mL/cm^3; the “VT, frontal cortex” value was 6.8 mL/cm^3; the “VT, hippocampus” value came to 6.9 mL/cm^3. Moreover, in data set [3] (setting [8]), the “VT, semiovale” value is reported as 8.6 mL/cm^3 and the “VT, thalamus” value worked out at 6.8 mL/cm^3. In addition, in data set [3] (setting [9]), the “VT, cerebellum” value is 7.6 mL/cm^3; the “VT, cingulate cortex” value is listed as 7.9 mL/cm^3; the “VT, frontal cortex” value amounted to 7.4 mL/cm^3; the “VT, hippocampus” value amounted to 7.3 mL/cm^3. Besides, in data set [3] (setting [9]), the “VT, semiovale” value was 8.0 mL/cm^3 and the “VT, thalamus” value was 6.8 mL/cm^3. Further, in data set [3] (setting [10]), the “VT, cerebellum” value was 9.3 mL/cm^3; the “VT, cingulate cortex” value stood at 11.6 mL/cm^3; the “VT, frontal cortex” value is 9.4 mL/cm^3; the “VT, hippocampus” value was 10.5 mL/cm^3. Besides, in data set [3] (setting [10]), the “VT, semiovale” value worked out at 9.5 mL/cm^3 and the “VT, thalamus” value is given as 9.4 mL/cm^3. For the same molecule, in data set [3] (setting [11]), the “VT, cerebellum” value turned out to be 8.7 mL/cm^3; the “VT, cingulate cortex” value is recorded as 10.1 mL/cm^3; the “VT, frontal cortex” value came to 9.2 mL/cm^3; the “VT, hippocampus” value is reported as 9.2 mL/cm^3. In data set [3] (setting [11]), the “VT, semiovale” value stood at 8.4 mL/cm^3 and the “VT, thalamus” value worked out at 8.6 mL/cm^3. Further, the “Non-displaceable volume of distribution (VND)” value in data set [3] (female monkey (monkey 2)) is recorded as 6.4 mL/cm^3. The “Non-displaceable volume of distribution (VND)” value in data set [3] (male monkey (monkey 1)) is 6.36 mL/cm^3 and 6.4 mL/cm^3. In data set [4] (M1 (male)), the “BPND, cerebellum” value was determined as 0.4; the “BPND, cingulate cortex” value is 1.0; the “BPND, frontal cortex” value amounted to 0.68; the “BPND, hippocampus” value is listed as 0.73. Moreover, in data set [4] (M1 (male)), the “BPND, semiovale” value is 0.43 and the “BPND, thalamus” value was determined as 0.48. Besides, in data set [4] (setting [12]), the “BPND, cerebellum” value was determined as 0.40 and the “BPND, cingulate cortex” value turned out to be 1.01. In addition, in data set [4] (M2 (female)), the “BPND, cerebellum” value is on record as 0.43; the “BPND, cingulate cortex” value is reported as 0.90; the “BPND, frontal cortex” value came to 0.60; the “BPND, hippocampus” value amounted to 0.60. In data set [4] (M2 (female)), the “BPND, semiovale” value turned out to be 0.48 and the “BPND, thalamus” value worked out at 0.50. Also, in data set [4], the “Peak uptake SUV across brain regions” value is reported as 4.5–6.5 and the “Time to peak brain uptake after tracer injection” value is on record as at most 20 min. Moreover, in data set [4] (M1), the “VT, cerebellum” value came out at 8.9 mL/cm^3; the “VT, cingulate cortex” value came to 12.8 mL/cm^3; the “VT, frontal cortex” value is reported as 10.7 mL/cm^3; the “VT, hippocampus” value worked out at 11.0 mL/cm^3. In data set [4] (M1), the “VT, semiovale” value came out at 9.1 mL/cm^3 and the “VT, thalamus” value is given as 9.4 mL/cm^3. Also, in data set [4] (M2), the “VT, cerebellum” value is given as 9.2 mL/cm^3; the “VT, cingulate cortex” value was determined as 12.2 mL/cm^3; the “VT, frontal cortex” value is 10.3 mL/cm^3; the “VT, hippocampus” value is 10.3 mL/cm^3. In addition, in data set [4] (M2), the “VT, semiovale” value is listed as 9.5 mL/cm^3 and the “VT, thalamus” value was 9.6 mL/cm^3. In addition, the “BPND in most brain regions” value in data set [4] (rhesus monkeys) was above 0.5. The molecule also displayed a fraction unbound in data set [5] of 0.012 ± 0.002. The molecule also came in with a logD in data set [6] of 2.85 ± 0.01. Moreover, on sigma-1 receptor, the Ki is 100 nM.

For `Cc1ccc(CC2(O)CCN(CCOc3ccc(O)cc3)CC2)cc1` [Co101,244, reference compound], in data set [2], the “Effect of pretreatment on parent fraction of (R)-[^18F]OF-Me-NB1 in plasma” value is given as “appeared to accelerate the decrease in parent fraction”. Also, the “Receptor occupancy (occupancy plot)” value in data set [3] (Co101,244 0.25 mg/kg, female monkey (monkey 2)) is 68%; in data set [3] (Co101,244 0.25 mg/kg, male monkey (monkey 1)), 77%. In data set [7], the Blood pressure drop was ~ 20%.

Regarding `O=c1sc2cc(CCCF)ccc2n1CCN1CCCCCC1` [FTC-146, reference compound], the “Effect of pretreatment on parent fraction of (R)-[^18F]OF-Me-NB1 in plasma” value in data set [2] is given as “had little effect”. The “Receptor occupancy (occupancy plot)” value in data set [3] (FTC-146 0.125 mg/kg, female monkey (monkey 2)) is on record as 33%. Moreover, in data set [7], the Blood pressure drop was ~ 20%.

For the molecule `COc1ccc2c(c1)CCN(CCCCc1ccccc1[18F])C[C@H]2O` [(S)-[^18F]OF-Me-NB1], the “Parent fraction of total plasma activity” value in data set [2] (30 min after tracer injection) is 20% and ~ 20%. Also, in data set [2] (90 min after tracer injection), the “Parent fraction of total plasma activity” value is reported as ~ 10%. Moreover, in data set [4], the “Peak uptake SUV across brain regions” value was 3.0–4.5 and the “Time to peak brain uptake after tracer injection” value was at most 15 min. For the same molecule, in data set [5], the fraction unbound amounted to 0.018.

As to `CC(C(O)c1ccc(O)cc1)N1CCC(Cc2ccccc2)CC1` (centres unmarked) [Ifenprodil, reference compound], the Ki in data set [1] (read-out: Ki, GluN2B subunit-containing NMDARs) is 10 nM.

These data come from PMC9165293, “Characterization in nonhuman primates of (R)-[^18F]OF-Me-NB1 and (S)-[^18F]OF-Me-NB1 for imaging the GluN2B subunits of the NMDA receptor” (European Journal of Nuclear Medicine and Molecular Imaging, 2022).
